Holding throughout (assay): inhibition of tumour cell growth, NCI panel, 48 h
In assay [1] the test system is 786-0.
Assay [2] deals with ACHN.
The test system of assay [3] is CCRF-CEM.
In assay [4] the test system is HCT-116.
In assay [5] the test system is HT-29.
The subject of assay [6] is IGROV-1.
Assay [7] has as its system K562.
For assay [8], the system named is Malme-3M.
In assay [9] the test system is NCI-H460.
Assay [10] has as its system NCI/ADR-RES.
Assay [11] has as its system OVCAR-3.
For assay [12], the system named is OVCAR-5.
In assay [13] the test system is OVCAR-8.
Assay [14] deals with SN12C.
Assay [15] has as its system SNB-75.
Assay [16] relates to SR.
Assay [17] relates to T47D.
Assay [18] concerns U-251.
For assay [19], the system named is SK-OV-3.

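Dose response: 5 concentrations. Exposure: 48 h. Format: 96-well plates. Endpoint: linear interpolation; highest concentration if not reached. At the GI50, growth is halved.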 Active and inactive are the calls of the source. Cut-off read from the data, not from the text of the source: active = GI50 up to about 1.1 µM and inactive = higher. Non-standard residues stand in square brackets, D forms with d. Residues, ends and D or L forms follow the SMILES beside them. *: point of attachment. Ac5c = NC1(C(=O)O)CCCC1; Boc = CC(C)(C)OC(=O)*; tBu = CC(C)(C)*

With `CCC1=CCC23C(=O)C=CC(=O)C2(C1)C(=O)c1cccc(OC)c1C3=O` (centres undefined), the GI50 was 11.9 µM (inactive) in assay [1]; 14.3 µM (inactive) in assay [2]; 3.26 µM (inactive) in assay [3]; 14.6 µM (inactive) in [4]; 20.3 µM (inactive) in [5]; 13 µM (inactive) in assay [6]. For the same molecule, the GI50 in assay [7] is 12.9 µM (inactive); in assay [8] it was 15.9 µM (inactive); in [9], 28.2 µM (inactive); in assay [10], 20.2 µM (inactive); in assay [11] it was 10.1 µM (inactive); in assay [12], 16.2 µM (inactive). For the same molecule, the GI50 is 15.2 µM (inactive) in assay [13]; 18.3 µM (inactive) in assay [14]; 15.6 µM (inactive) in assay [15]; 9.82 µM (inactive) in assay [16]; 0.409 µM (active) in assay [17]; 23 µM (inactive) in assay [18].

For the molecule `Cc1cc(-c2no[n+]([O-])c2-c2cc(C)sc2S(C)(=O)=O)c(S(C)(=O)=O)s1`, the GI50 in [1], in [2], in assay [3], in assay [4], in assay [5] and in assay [6] was > 100 µM (inactive) in each case. In addition, the GI50 in assay [7] was 83.4 µM (inactive); in assay [9], > 100 µM (inactive); in assay [10], > 100 µM (inactive); in assay [11], > 100 µM (inactive); in assay [12], > 100 µM (inactive); in assay [13], > 100 µM (inactive). The GI50 in [19] was > 100 µM (inactive); in assay [14] it was > 100 µM (inactive); in assay [15], > 100 µM (inactive); in assay [16] it was > 100 µM (inactive); in assay [17] it was 89.5 µM (inactive); in assay [18], > 100 µM (inactive).

For `C/C(=N/NC(N)=S)C(CN1CCOCC1)C(C1=C(O)c2ccccc2OC1)c1ccccc1` (centres undefined), the GI50 in assay [1] is > 100 µM (inactive); in assay [2] it was > 100 µM (inactive); in assay [3] it was 60.7 µM (inactive); in assay [4], 85.5 µM (inactive); in [5], > 100 µM (inactive); in assay [6] it was > 100 µM (inactive). In addition, the GI50 in assay [7] was 93.1 µM (inactive); in [8] it was 69 µM (inactive); in [9], > 100 µM (inactive); in assay [11], > 100 µM (inactive); in [12], > 100 µM (inactive); in assay [13], > 100 µM (inactive). Also, the GI50 in assay [19] was > 100 µM (inactive); in assay [14] it was > 100 µM (inactive); in assay [15], 78 µM (inactive); in assay [16] it was 25.4 µM (inactive); in assay [18], > 100 µM (inactive).

As for `COc1ccc(NCC#N)cc1`, the GI50 was 25.1 µM (inactive) in assay [1]; > 100 µM (inactive) in assay [2]; > 100 µM (inactive) in assay [3]; > 100 µM (inactive) in assay [4]; > 100 µM (inactive) in assay [5]; > 100 µM (inactive) in assay [6]. The GI50 in [7], in assay [8], in assay [9], in [11], in assay [12] and in assay [13] was > 100 µM (inactive) each time. Besides, the GI50 in assay [19] was > 100 µM (inactive); in assay [14], > 100 µM (inactive); in [15], 76.2 µM (inactive); in [16], > 100 µM (inactive); in [18], > 100 µM (inactive).

`O=[N+]([O-])c1ccc(Cc2nc3ccccc3s2)cc1`: the GI50 in assay [1] was > 100 µM (inactive); in assay [2], > 100 µM (inactive); in assay [3] it was 33.3 µM (inactive); in assay [4], 38.9 µM (inactive); in assay [5], 66.5 µM (inactive); in assay [6] it was > 100 µM (inactive). The GI50 in [7] is 43.7 µM (inactive); in [8] it was > 100 µM (inactive); in [9], > 100 µM (inactive); in assay [11] it was > 100 µM (inactive); in [12], > 100 µM (inactive); in assay [13], 91.4 µM (inactive). The GI50 was > 100 µM (inactive) in [19]; 36.1 µM (inactive) in [14]; > 100 µM (inactive) in [15]; 46 µM (inactive) in [16]; 44.8 µM (inactive) in assay [18].

In the case of `C[C@@H]1OC2(O)[C@@H]3CCCN3C(=O)N(Cc3ccccc3)N2C1=O` (some centres undefined), the GI50 in assay [1], in [2], in [3], in assay [4], in [5] and in [6] was > 100 µM (inactive) in each case. In addition, the GI50 in assay [8], in assay [9], in assay [10], in assay [11], in assay [12] and in assay [13] was > 100 µM (inactive) each time. The GI50 in assay [19] was > 100 µM (inactive); in [14], > 100 µM (inactive); in assay [15] it was 0.331 µM (active); in [16], > 100 µM (inactive); in assay [17], > 100 µM (inactive).

Regarding `O=[N+]([O-])c1ccc(-c2ccc(-c3csc(Nc4ccccc4)n3)o2)cc1`, the GI50 in assay [1] was 17.1 µM (inactive); in assay [2] it was 17.3 µM (inactive); in assay [3] it was 2.93 µM (inactive); in assay [4], 21.5 µM (inactive); in assay [5] it was 22.7 µM (inactive); in assay [6] it was 25.1 µM (inactive). The GI50 in assay [7] is 7.59 µM (inactive); in assay [8], 17 µM (inactive); in assay [9], 34.8 µM (inactive); in assay [11], 19.3 µM (inactive); in assay [12], 17.7 µM (inactive); in assay [13], 19.5 µM (inactive). Also, the GI50 in [19] is > 100 µM (inactive); in assay [14], 18.6 µM (inactive); in [15] it was 24.9 µM (inactive); in [16], 1.9 µM (inactive); in assay [18], 19.6 µM (inactive).

Turning to `O=C(/C=N/c1ccccc1C(=O)[O-])c1cccs1.O=C(/C=N/c1ccccc1C(=O)[O-])c1cccs1.[Zn+2]`, the GI50 in assay [1] was > 100 µM (inactive); in assay [2], > 100 µM (inactive); in [3] it was 23.7 µM (inactive); in assay [4], > 100 µM (inactive); in assay [5], > 100 µM (inactive); in assay [6], 31.9 µM (inactive). The GI50 in assay [7] is 29.2 µM (inactive); in assay [8], > 10 µM (inactive); in assay [9] it was 71.8 µM (inactive); in assay [11], 15.4 µM (inactive); in [12] it was 24.7 µM (inactive); in [13], 36.1 µM (inactive). Also, the GI50 was 20.5 µM (inactive) in assay [19]; > 10 µM (inactive) in assay [14]; 14.8 µM (inactive) in [15]; 46.3 µM (inactive) in [16]; 17.5 µM (inactive) in [18].

Regarding `CCOc1cc(/C=C2/C(C)=NN(c3cccc(Cl)c3)/C2=N/c2nc3ccccc3s2)ccc1O`, the GI50 is 32.1 µM (inactive) in assay [1]; 24.3 µM (inactive) in [2]; 33.2 µM (inactive) in assay [3]; 24.2 µM (inactive) in assay [4]; 41.2 µM (inactive) in [5]; 29.6 µM (inactive) in [6]. The GI50 in [7] is 40.4 µM (inactive); in assay [9] it was 25.5 µM (inactive); in assay [10], 20.5 µM (inactive); in assay [11] it was 20 µM (inactive); in assay [12] it was 98.9 µM (inactive); in assay [13], 30.4 µM (inactive). For the same molecule, the GI50 in assay [19] was 23 µM (inactive); in assay [15], 34.8 µM (inactive); in [16], 27.9 µM (inactive); in assay [17], 38.6 µM (inactive); in assay [18] it was 20.3 µM (inactive).

For `CNc1ncnc2c1nnn2C`, the GI50 in assay [1], in [2], in assay [3], in assay [4], in assay [5] and in assay [6] was > 100 µM (inactive) throughout. The GI50 in assay [7], in assay [8], in assay [10], in [11], in [13] and in assay [19] was > 100 µM (inactive) in each case. Besides, the GI50 in [14], in [15], in assay [17] and in assay [18] was > 100 µM (inactive) in each case.

`CC(OC(C)(C)C)C1NC(=O)C(CCCCNC(=O)OC(C)(C)C)NC(=O)C(Cc2c[nH]c3ccccc23)NC(=O)C(Cc2ccccc2)NC(=O)C2(CCCC2)NC(=O)C(Cc2ccccc2)NC1=O` (centres undefined) (cyclo([Ac5c]FWK(Boc)T(tBu)F); configuration not given here): the GI50 was 16 µM (inactive) in [1]; 32.4 µM (inactive) in [2]; 28.2 µM (inactive) in assay [3]; 33.3 µM (inactive) in [4]; 24 µM (inactive) in assay [5]; 16.2 µM (inactive) in assay [6]. The GI50 is 27.8 µM (inactive) in assay [7]; 27.3 µM (inactive) in assay [8]; 36.7 µM (inactive) in [9]; > 100 µM (inactive) in [10]; 26 µM (inactive) in assay [11]; 72.6 µM (inactive) in [12]. The GI50 is 50.2 µM (inactive) in assay [13]; 68.4 µM (inactive) in assay [19]; 29.9 µM (inactive) in assay [14]; 32.2 µM (inactive) in assay [16]; 10.4 µM (inactive) in [17]; 15.8 µM (inactive) in [18].

The values above are taken from ChEMBL document CHEMBL1201862, “PubChem BioAssay data set” (2004).
